Results from patent US20250066370A1, “BICYCLIC TRIAZINE DERIVATIVES FOR THE TREATMENT OF CANCER” (DEUTSCHES KREBSFORSCHUNGSZENTRUM, priority 2022, published 2025).

Key:
[1] = test system: MDA-MB-231, human breast cancer cells; experiment: Proliferation assay MDA-MB-231 (crystal violet); format: cell-based; details: 96 h, MDA-MB-231 parental cells, 4 days, median, read-out: Prolif-MDA MB-231, IC50 - [mol/l] (median)
Protocol: Human tumour cells were originally obtained from the American Type Culture Collection (ATCC), or from the Deutsche Sammlung von Mikroorganismen und Zellkulturen (DSMZ, German Collection of Microorganisms and Cell Cultures). Cultivated tumour cells (CAL-120, human breast adenocarcinoma cells, DSMZ ACC-459; MDA-MB-231, human breast cancer cells, ATCC HTB-26) were plated at a density of 4,000 cells/well in a 96-well multitier plate in 200 microL of their respective growth medium supplemented 10% fetal calf serum. After 24 hours, the cells of one plate (zero-point plate) were stained with crystal violet (see below), while the medium of the other plates was supplemented with the test substances in various concentrations (0 micromol/L, as well as in the range of 0.01-10 micromol/L; the final concentration of the solvent dimethyl sulfoxide was adjusted to 0.1%) using a Tecan HP D300 Digital Dispenser. The cells were incubated for 4 days in the presence of test substances. Cell proliferation was determined by staining the cells with crystal violet: the cells were fixed by adding 20 microL/measuring point of an 11% glutaric aldehyde solution for 15 minutes at room temperature. After three washing cycles of the fixed cells with water, the plates were dried at room temperature. The cells were stained by adding 100 microL/measuring point of a 0.1% crystal violet solution (pH 3.0). After three washing cycles of the stained cells with water, the plates were dried at room temperature. The dye was dissolved by adding 100 microL/measuring point of a 10% acetic acid solution. The extinction was determined by photometry at a wavelength of 595 nm. The change of cell number, in percent, was calculated by normalization of the measured values to the extinction values of the zero-point plate (=0%) and the extinction of the untreated (0 μM) cells (=100%). The IC50 values (inhibitory concentration at 50% of maximal effect) were determined by means of a 4 parameter fit.

CDK9/CyclinT1 = CDK9/CyclinT1 (Homo sapiens (Human), UniProt P50750); experiment: CDK9/CycT1 high ATP kinase assay (TR-FRET); format: biochemical; details: 2 mM ATP (high ATP); median; read-out: CDK9/CyclinT1, 2 mM ATP (high ATP), IC50 - [mol/l] (median)
Protocol: CDK9/CycT1-inhibitory activity of compounds of the present invention at a high ATP concentration after preincubation of enzyme and test compounds was quantified employing the CDK9/CycT1 TR-FRET assay as described in the following paragraphs.
Recombinant full-length His-tagged human CDK9 and CycT1, expressed in insect cells and purified by Ni-NTA affinity chromatography, were purchased from Life Technologies (Cat. No PV4131). As substrate for the kinase reaction biotinylated peptide biotin-Ttds-YISPLKSPYKISEG (C-terminus in amide form) was used which can be purchased e.g. form the company JERINI peptide technologies (Berlin, Germany).
For the assay 50 nanoL of a 100 fold concentrated solution of the test compound in DMSO was pipetted into either a black low volume 384 well microtiter plate or a black 1536 well microtiter plate (both Greiner Bio-One, Frickenhausen, Germany), 2 microL of a solution of CDK9/CycT1 in aqueous assay buffer [50 millimol/L Tris/HCl PH 8.0, 10 millimol/L MgCl2, 1.0 millimol/L dithiothreitol, 0.1 millimol/L sodium ortho-vanadate, 0.01% (v/v) Nonidet-P40 (Sigma)] were added and the mixture was incubated for 15 min at 22° C. to allow pre-binding of the test compounds to the enzyme before the start of the kinase reaction. Then the kinase reaction was started by the addition of 3 microL of a solution of adenosine-tri-phosphate (ATP, 3.3 millimol/L=>final conc. in the 5 microL assay volume is 2 millimol/L) and substrate (1.25 micromol/L=>final conc. in the 5 microL assay volume is 0.75 micromol/L) in assay buffer and the resulting mixture was incubated for a reaction time of 25 min at 22° C. The concentration of CDK9/CycT1 was adjusted depending of the activity of the enzyme lot and was chosen appropriate to have the assay in the linear range, typical concentrations were in the range of 0.5 microg/ml. The reaction was stopped by the addition of 3 microL of a solution of TR-FRET detection reagents (0.33 micromol/L streptavidine-XL665 [Cisbio Bioassays, Codolet, France] and 1.67 nanomol/L anti-RB (pSer807/pSer811)-antibody from BD Pharmingen [#558389] and 2 nanomol/L LANCE EU-W1024 labeled anti-mouse IgG antibody [Perkin-Elmer, product no. AD0077]) in an aqueous EDTA-solution (167 millimol/L EDTA, 0.2% (w/v) bovine serum albumin in 100 millimol/L HEPES pH 7.5).
The resulting mixture was incubated 1 h at 22° C. to allow the formation of complex between the phosphorylated biotinylated peptide and the detection reagents. Subsequently the amount of phosphorylated substrate was evaluated by measurement of the resonance energy transfer from the Eu-chelate to the streptavidine-XL. Therefore, the fluorescence emissions at 620 nm and 665 nm after excitation at 350 nm was measured in a TR-FRET reader, e.g. a Pherastar (BMG Labtechnologies, Offenburg, Germany) or a Viewlux (Perkin-Elmer). The ratio of the emissions at 665 nm and at […] was taken as the measure for the amount of phosphorylated substrate. The data were normalised (enzyme reaction without inhibitor=0% inhibition, all other assay components but no enzyme=100% inhibition).

Chain of CDK9/CyclinT1 (P50750 whole entry): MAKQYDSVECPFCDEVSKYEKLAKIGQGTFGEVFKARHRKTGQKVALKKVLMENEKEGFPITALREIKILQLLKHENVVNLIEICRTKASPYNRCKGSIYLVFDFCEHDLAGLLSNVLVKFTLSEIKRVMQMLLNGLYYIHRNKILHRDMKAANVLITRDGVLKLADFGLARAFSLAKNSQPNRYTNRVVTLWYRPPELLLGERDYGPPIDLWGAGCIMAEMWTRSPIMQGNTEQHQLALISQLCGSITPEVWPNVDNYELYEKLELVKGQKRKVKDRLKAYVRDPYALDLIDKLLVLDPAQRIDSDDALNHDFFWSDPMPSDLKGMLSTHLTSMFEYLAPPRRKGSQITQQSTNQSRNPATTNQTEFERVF
Chain of CDK9/CyclinT1 (O60563 whole entry partner): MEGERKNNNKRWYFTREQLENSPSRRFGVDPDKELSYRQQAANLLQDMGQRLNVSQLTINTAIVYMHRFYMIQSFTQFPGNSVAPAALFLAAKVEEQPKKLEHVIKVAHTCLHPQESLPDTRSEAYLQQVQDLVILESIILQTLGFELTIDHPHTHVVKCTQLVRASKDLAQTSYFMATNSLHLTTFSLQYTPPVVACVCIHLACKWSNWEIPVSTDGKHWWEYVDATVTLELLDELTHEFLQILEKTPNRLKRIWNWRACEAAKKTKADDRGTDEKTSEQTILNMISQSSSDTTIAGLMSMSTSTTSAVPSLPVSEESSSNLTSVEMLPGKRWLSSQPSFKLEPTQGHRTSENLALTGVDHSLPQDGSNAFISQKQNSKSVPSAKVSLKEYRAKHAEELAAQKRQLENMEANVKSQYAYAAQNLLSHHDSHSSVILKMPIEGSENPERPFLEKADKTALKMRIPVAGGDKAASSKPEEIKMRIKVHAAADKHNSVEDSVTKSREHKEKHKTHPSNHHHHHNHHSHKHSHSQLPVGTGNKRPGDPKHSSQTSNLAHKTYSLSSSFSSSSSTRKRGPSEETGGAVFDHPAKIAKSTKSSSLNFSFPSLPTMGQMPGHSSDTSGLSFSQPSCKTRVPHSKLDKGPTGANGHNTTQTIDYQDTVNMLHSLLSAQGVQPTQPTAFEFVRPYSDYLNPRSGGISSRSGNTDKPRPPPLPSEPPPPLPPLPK

Row | IC50 (CDK9/CyclinT1) [nM] | SMILES | IC50 [1] [nM]
1 | 506 | FC(F)(F)Oc1ccc(-c2nnc(CNc3nc(N4CCOCC4)nn4c(C(F)(F)F)cnc34)[nH]2)cn1 [Example 19, 2-(morpholin-4-yl)-N-({5-[6-(trifluoromethoxy)pyridin-3-yl]-4H-1,2,4-triazol-3-yl}methyl)-7-(trifluoromethyl)imidazo[2,1-f][1,2,4]triazin-4-amine] | 37.5
2 | 847 | FC(F)(F)c1ccc(-c2nnc(CNc3nc(N4CCOCC4)nn4c(C(F)(F)F)cnc34)[nH]2)cn1 [Example 20, 2-(morpholin-4-yl)-7-(trifluoromethyl)-N-({5-[6-(trifluoromethyl)pyridin-3-yl]-4H-1,2,4-triazol-3-yl}methyl)imidazo[2,1-f][1,2,4]triazin-4-amine] | 52.9
3 | 1890 | Cc1ccc(-c2nnc(CNc3nc(N4CCOCC4)nc4c(C(F)(F)F)cnn34)[nH]2)cn1 [Example 22, N-{[5-(6-methylpyridin-3-yl)-4H-1,2,4-triazol-3-yl]methyl}-2-(morpholin-4-yl)-8-(trifluoromethyl)pyrazolo[1,5-a][1,3,5]triazin-4-amine] | 286
